# Test results: PubChem BioAssay (NCI)
#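 Step 1: Grow cells in 96-well plates. Step 2: Expose to compound for 48 hours at 5 concentrations. Step 3: Interpolate endpoints linearly; if unreached, use highest concentration. Abbreviation: GI50, concentration required for 50% inhibition of growth. TGI: total growth inhibition.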
# Tests used:
# Assay in all cases: NCI tumour cell line growth inhibition, 48 h
# 786-0 renal = system: 786-0 renal
# A498 renal = system: A498 renal
# A549 NSCLC = system: A549 NSCLC
# ACHN renal = system: ACHN renal
# BT-549 breast = system: BT-549 breast
# CAKI-1 renal = system: CAKI-1 renal
# CCRF-CEM leukemia = system: CCRF-CEM leukemia
# COLO 205 colon = system: COLO 205 colon
# DU-145 prostate = system: DU-145 prostate
# EKVX NSCLC = system: EKVX NSCLC
# HCC-2998 colon = system: HCC-2998 colon
# HCT-116 colon = system: HCT-116 colon
# HCT-15 colon = system: HCT-15 colon
# HL-60(TB) leukemia = system: HL-60(TB) leukemia
# HOP-62 NSCLC = system: HOP-62 NSCLC
# HOP-92 NSCLC = system: HOP-92 NSCLC
# HS 578T breast = system: HS 578T breast
# HT29 colon = system: HT29 colon
# IGROV1 ovarian = system: IGROV1 ovarian
# K-562 leukemia = system: K-562 leukemia
# KM12 colon = system: KM12 colon
# LOX IMVI melanoma = system: LOX IMVI melanoma
# M14 melanoma = system: M14 melanoma
# MALME-3M melanoma = system: MALME-3M melanoma
# MCF7 breast = system: MCF7 breast
# MDA-MB-231 breast = system: MDA-MB-231 breast
# MDA-MB-435 = system: MDA-MB-435
# MDA-MB-468 breast = system: MDA-MB-468 breast
# MOLT-4 leukemia = system: MOLT-4 leukemia
# NCI-H226 lung = system: NCI-H226 lung
smiles,measurement,setting,value
O=C(NO)c1ccc(CNC(=O)[C@H]2Cc3c([nH]c4ccccc34)[C@H](c3ccccc3)N2)cc1,GI50,786-0 renal,9.15 µM
same,TGI,786-0 renal,> 23.7 µM
same,GI50,A498 renal,2.46 µM
same,TGI,A498 renal,11.7 µM
same,GI50,A549 NSCLC,6.77 µM
same,TGI,A549 NSCLC,> 23.7 µM
same,GI50,ACHN renal,5 µM
same,TGI,ACHN renal,16.2 µM
same,GI50,BT-549 breast,14.2 µM
same,TGI,BT-549 breast,> 23.7 µM
same,GI50,CAKI-1 renal,5.69 µM
same,TGI,CAKI-1 renal,16.6 µM
same,GI50,CCRF-CEM leukemia,0.785 µM
same,TGI,CCRF-CEM leukemia,> 23.7 µM
same,GI50,COLO 205 colon,2.36 µM
same,TGI,COLO 205 colon,5.57 µM
same,GI50,DU-145 prostate,4.06 µM
same,TGI,DU-145 prostate,> 23.7 µM
same,GI50,EKVX NSCLC,8.42 µM
same,TGI,EKVX NSCLC,> 23.7 µM
same,GI50,HCC-2998 colon,2.9 µM
same,TGI,HCC-2998 colon,6.91 µM
same,GI50,HCT-116 colon,1.13 µM
same,TGI,HCT-116 colon,> 23.7 µM
same,GI50,HCT-15 colon,11.8 µM
same,TGI,HCT-15 colon,> 23.7 µM
same,GI50,HL-60(TB) leukemia,3 µM
same,TGI,HL-60(TB) leukemia,> 23.7 µM
same,GI50,HOP-62 NSCLC,3.6 µM
same,TGI,HOP-62 NSCLC,13.1 µM
same,GI50,HOP-92 NSCLC,1.59 µM
same,TGI,HOP-92 NSCLC,12.4 µM
same,GI50,HS 578T breast,1.38 µM
same,TGI,HS 578T breast,21.8 µM
same,GI50,HT29 colon,3.29 µM
same,TGI,HT29 colon,18 µM
same,GI50,IGROV1 ovarian,3.71 µM
same,TGI,IGROV1 ovarian,15.2 µM
same,GI50,K-562 leukemia,1.38 µM
same,TGI,K-562 leukemia,> 23.7 µM
same,GI50,KM12 colon,5.01 µM
same,TGI,KM12 colon,> 23.7 µM
same,GI50,LOX IMVI melanoma,3.35 µM
same,TGI,LOX IMVI melanoma,6.43 µM
same,GI50,M14 melanoma,5.93 µM
same,TGI,M14 melanoma,> 23.7 µM
same,GI50,MALME-3M melanoma,0.545 µM
same,TGI,MALME-3M melanoma,> 23.7 µM
same,GI50,MCF7 breast,3.59 µM
same,TGI,MCF7 breast,> 23.7 µM
same,GI50,MDA-MB-231 breast,3.53 µM
same,TGI,MDA-MB-231 breast,12.4 µM
same,GI50,MDA-MB-435,3.26 µM
same,TGI,MDA-MB-435,13.5 µM
same,GI50,MDA-MB-468 breast,0.507 µM
same,TGI,MDA-MB-468 breast,2.33 µM
same,GI50,MOLT-4 leukemia,0.763 µM
same,TGI,MOLT-4 leukemia,> 23.7 µM
same,GI50,NCI-H226 lung,2.7 µM
